According to US4025528A, “Thiazole derivatives of benzoic and phenylalkanoic acids” (Shionogi & Co., Ltd., priority 1973, dated 1977):
Like-named read-outs stand apart in the source and are kept apart here.

How the values were obtained:
DS mice = assay: Acetic Acid Writhing Method; assay type: in vivo; details: Mus musculus, read-out: Acetic Acid Writhing ED (50%)
Method: 6. Acetic Acid Writhing Method
DS mice (20-23 g, male) are treated with an intraperitoneal injection of 0.1 ml/10 g of 0.6% acetic acid 60 minutes after oral administration of a test drug. The number of times of writhing for 10 minutes is counted. The ED50 is calculated by the Bliss' method.

Wistar rat [1] = assay: Effect on Adjuvant Arthritis; assay type: in vivo; details: 120 h
Method: 5. Effect on Adjuvant Arthritis
A test compound is orally administered to the arthritic rat twice a day for 5 consecutive days. Five hours after the final medication the change in swelling volume of the arthritic foot is measured. The ED30 is calculated by the Bliss' method.

guinea-pig = assay: Anti-erythema Activity (ultraviolet light); assay type: in vivo
Method: 4. Anti-erythema Activity
The hair on the back of guinea-pig (300-400 g, male and female) is removed on the day before experiment. Thirty minutes after oral administration of a test drug, 3 circular areas (8 mm in diameter each) on the back of the animal are exposed to ultraviolet light for 60 seconds. Anti-erythema activity is evaluated at 2 hours after irradiation. The ED50 is calculated by Up and Down method of Brownlee et al. [J. Am. Stat. Assoc.

in vivo [2] = details: mouse, po
Wistar rats [3] = assay: Anti-edema Activity (carrageenin foot edema); assay type: in vivo, Wistar rat; details: Rattus norvegicus, read-out: Anti-edema ED (30%)
Method: An aqueous solution of 1% carrageenin (0.05 ml) is used as phlogistic agent. After 30 minutes Wistar rats (180-200 g, female) are orally administered test compounds, the phalogistic agent is injected subcutaneously into the plantar parts of the foot of rats. The volume of swelling is measured 3 hours after carrageenin, and the anti-edema activity is determined by calculating the ratio of the edematous volume of medicated foot to that of non-medicated foot. […]

Wistar rats [4] = assay: Anti-abscess Activity (carrageenin); assay type: in vivo, Wistar rat; details: Rattus norvegicus, read-out: Anti-abscess ED (25%)
Method: Carrageenin (2% aqueous solution, 0.5 ml) is subcutaneously injected into the back of Wistar rats (180-200 g, female) and at the same time one-half dose of a test compound is orally given, the other half given 3 hours later. The animals are sacrificed 24 hours after carrageenin and the abscess formed is isolated and weighed. The ED25 is calculated by the Bliss' method.

Wistar rat [5] = assay: Effect of Scald-inflamed Foot; assay type: in vivo; details: 1.5 h, read-out: Scald-inflamed Foot ED (100%)
Method: 7. Effect of Scald-inflamed Foot
A test drug is administered orally 90 minutes after scalding and the analgesic activity is evaluated by compressing the foot with a plunger.

Wistar rat [6] = assay: Anti-granuloma Activity (carrageenin filterpaper); assay type: in vivo; details: 168 h
Method: 3. Anti-granuloma Activity
Two circular pieces of filterpaper about 6 mm in diameter, soaking 90 mg of 5% carrageenin solution, are implanted subcutaneously in the abdominal skin of Wistar rat (180-200 g, female). A test drug is orally given once a day for 6 consecutive days. On the 7th day the animals are killed and the amount of granulation tissue deposited, the adrenals and the thymus are weighed. The ED25 is calculated by the Bliss' method.

Wister rat = assay: Anti-pyretic Activity (yeast); assay type: in vivo; details: read-out: Anti-pyretic Activity, dose by which body temperature is reduced 0.5° C.
Method: 11. Anti-pyretic Activity
A test compound is orally administered to Wister rat (180-200 g, female) 16 hours after an injection of 2 ml of 15% suspension of yeast into the subcutaneous tissue of the hip of the rat. The rectal temperature is measured every 1 hour for 5 hours. The effective dose is calculated by the Bliss' method.

in vivo [7] = details: rat, po
Wistar rat [8] = assay: Effect on Yeast-inflamed Foot; assay type: in vivo; details: 2 h, oral, pain threshold two hours later, ED 100%
Method: 8. Effect on Yeast-inflamed Foot
A test compound is orally given Wistar rat (180-200 g, female) immediately before subcutaneous injection of 0.1 ml of 20% yeast suspension into the plantar tissue of the foot. Two hours later, the pain threshold is measured by comprissing the foot with a plunger and calculated by the method of Litchfield and Wilcoxon.

Wistar rat [9] = assay: Foot-licking Method (formaldehyde); assay type: in vivo
Method: Thirty minutes after oral administration of a test drug in Wistar rat (180-200 g, female), the effect of the compound on foot-licking syndrome due to irritation by a subcutaneous injection of 0.05 ml of 3.75% formaldehyde into the plantar tissue of the hind-paw is observed for 50 minutes. The ED50 is calculated by the method of Litchfield and Wilcoxon.

[10] = oral, 60 minutes before 0.6% acetic acid i.p., ED50
[11] = oral twice a day for 5 days, ED30, read-out: Arthritis ED (30%)
[12] = Cavia porcellus, light or radiation study, po, 2 h; read-out: Anti-erythema ED (50%)
[13] = oral, swelling 3 hours after carrageenin, ED 30%
[14] = oral, two half doses, 24 hours after carrageenin, ED25
[15] = oral, 90 minutes after scalding, pain threshold, ED 100%
[16] = oral once a day for 6 days, ED25, read-out: Anti-granuloma ED (25%)
[17] = oral, 16 hours after yeast injection
[18] = oral, thirty minutes before formaldehyde, ED50, read-out: Footlicking ED (50%)

SMILES	LD50 at 72 h (in vivo [2])	LD50 at 72 h (in vivo [7])	ED100 (Wistar rat [8])	ED50 (DS mice; [10])	ED30 (Wistar rat [1]; [11])	ED50 (guinea-pig; [12])	ED30 (Wistar rats [3]; [13])	ED25 (Wistar rats [4]; [14])	ED100 (Wistar rat [5]; [15])	ED25 (Wistar rat [6]; [16])	ED (0.5 degC reduction) (Wister rat; [17])	ED50 (Wistar rat [9]; [18])	also measured
CC(=O)Oc1ccccc1C(=O)O [Acetylsalicylic Acid, acetylsalicylic acid]	2000 mg/kg	2400 mg/kg	250 mg/kg										ED50 (DS mice; po): 180 mg/kg; ED30 (Wistar rat [1]; po, read-out: Arthritis ED (30%)): 100 mg/kg; ED50 (guinea-pig; Cavia porcellus, light or radiation study, po, 2 h, read-out: Anti-erythema ED (50%)): 79 mg/kg; ED30 (Wistar rats [3]; po, 3 h): 48 mg/kg; ED25 (Wistar rats [4]; po, 24 h): 175 mg/kg; ED100 (Wistar rat [5]; po): 260 mg/kg; ED25 (Wistar rat [6]; po, read-out: Anti-granuloma ED (25%)): > 500 mg/kg; ED (0.5 degC reduction) (Wister rat; po, 16 h): 14 mg/kg; ED50 (Wistar rat [9]; po, read-out: Footlicking ED (50%)): 580 mg/kg
Cc1nc(Oc2ccccc2)sc1C(C)C(=O)O (centres unmarked) [Example 48-140, calcium 2-(2-phenoxy-4-methyl-5-thiazolyl)propionate]	1190 mg/kg	1200 mg/kg	110 mg/kg	180 mg/kg	20 mg/kg	27 mg/kg	14 mg/kg	60 mg/kg	> 500 mg/kg	230 mg/kg	23 mg/kg	130 mg/kg	
CC(C(=O)O)c1ccc(Oc2nccs2)cc1 (centres unmarked) [Example 48-156, 2-[4-(2-thiazolyloxy)phenyl]propionic acid]			28 mg/kg	20 mg/kg	4.2 mg/kg	20 mg/kg	3.8 mg/kg	6.4 mg/kg	77 mg/kg	13 mg/kg	4 mg/kg	175 mg/kg	
CCCCC1C(=O)N(c2ccccc2)N(c2ccccc2)C1=O [Phenylbutazone, phenylbutazone]			130 mg/kg	440 mg/kg	7.8 mg/kg	26 mg/kg	48 mg/kg	33 mg/kg	240 mg/kg	24 mg/kg	3.8 mg/kg	150 mg/kg	
